Our source for the relative permittivity, refractive index and mass density values is the NIST ThermoML archive (doi:10.1016/j.fluid.2018.04.007).

A short description of series [1]: relative permittivity at various frequencies (dimensionless); xn = mol fraction of the nth substance listed. The following applies: 101 kPa, Liquid, Frequency=1 MHz, Parallel plate capacitor, x1 = 1.
Series [2] in a line: refractive index (Na D-line) (dimensionless); xn = mol fraction of the nth substance listed. The following applies: 101 kPa, Liquid, Standard Abbe refractometry, x1 = 1.
Series [3] can be described thus: relative permittivity at various frequencies (dimensionless). The following applies: 101 kPa, Liquid, Frequency=1 MHz, Parallel plate capacitor.
Series [4] in a line: refractive index (Na D-line) (dimensionless). As to conditions: 101 kPa, Liquid, Standard Abbe refractometry.
For series [5] the following is noted: 101 kPa, Liquid, Vibrating tube method.

The structures appear in SMILES notation. Numbers after ± are expanded uncertainties.

A word on the refractive index: it is the speed of light in vacuum divided by its phase velocity in the sample. As for `CCCCCO` [pentan-1-ol] + CCCCCCN, the relative permittivity in series [1] (293.15 K) is listed as 15.701 ± 0.68; in series [1] (298.15 K), 15.102 ± 0.67; in series [1] (303.15 K), 14.536 ± 0.65. Further, the figures for the refractive index in series [2] (293.15 K), in series [2] (298.15 K) and in series [2] (303.15 K) were 1.40985 ± 0.00033, 1.40793 ± 0.00033 and 1.4059 ± 0.00033, respectively.

As a reminder, the mass density is mass per unit of volume. For `CCCCCO` [pentan-1-ol], the relative permittivity in series [3] (293.15 K) was found to be 15.701 ± 0.68; in series [3] (298.15 K), 15.102 ± 0.67; in series [3] (303.15 K), 14.536 ± 0.65. Besides, the refractive index is given as 1.40985 ± 0.00033 in series [4] (293.15 K), 1.40793 ± 0.00033 in series [4] (298.15 K) and 1.4059 ± 0.00033 in series [4] (303.15 K). For the same compound, the mass density in series [5] (293.15 K) came out at 814.66 ± 2 kg/m3; in series [5] (298.15 K), 811.03 ± 1.9 kg/m3; in series [5] (303.15 K), 807.35 ± 1.9 kg/m3.

Consider `CO` [methanol] + CCCCCCN, for which the figures for the relative permittivity in series [1] (293.15 K), in series [1] (298.15 K) and in series [1] (303.15 K) were 33.569 ± 0.97, 32.619 ± 0.96 and 33.569 ± 0.97, respectively. In addition, the values for the refractive index in series [2] (293.15 K), in series [2] (298.15 K) and in series [2] (303.15 K) were 1.32862 ± 0.00033, 1.32654 ± 0.00033 and 1.32439 ± 0.00033, respectively.

As for `CCCO` [propan-1-ol], the relative permittivity in series [3] (293.15 K) amounted to 21.15 ± 0.78; in series [3] (298.15 K), 20.449 ± 0.77; in series [3] (303.15 K) it was 19.784 ± 0.76. Also, the refractive index in series [4] (293.15 K) stood at 1.38514 ± 0.00033; in series [4] (298.15 K), 1.38306 ± 0.00033; in series [4] (303.15 K), 1.38102 ± 0.00033. The mass density is reported as 803.66 ± 1.9 kg/m3 in series [5] (293.15 K), 799.68 ± 1.9 kg/m3 in series [5] (298.15 K) and 795.66 ± 1.9 kg/m3 in series [5] (303.15 K).

Turning to `CCCCCCN` [1-hexanamine], the relative permittivity was found to be 3.964 ± 0.37 in series [3] (293.15 K), 3.904 ± 0.37 in series [3] (298.15 K) and 3.846 ± 0.36 in series [3] (303.15 K). Besides, the refractive index is reported as 1.41808 ± 0.00033 in series [4] (293.15 K), 1.41563 ± 0.00033 in series [4] (298.15 K) and 1.41321 ± 0.00033 in series [4] (303.15 K). For the same compound, the mass density was 764.43 ± 1.8 kg/m3 in series [5] (293.15 K), 760.19 ± 1.8 kg/m3 in series [5] (298.15 K) and 755.9 ± 1.8 kg/m3 in series [5] (303.15 K).

In the case of `CO` [methanol], the results for the relative permittivity in series [3] (293.15 K), in series [3] (298.15 K) and in series [3] (303.15 K) were 33.569 ± 0.97, 32.619 ± 0.96 and 31.652 ± 0.95, respectively. The results for the refractive index in series [4] (293.15 K), in series [4] (298.15 K) and in series [4] (303.15 K) were 1.32862 ± 0.00033, 1.32654 ± 0.00033 and 1.32439 ± 0.00033, respectively. Further, the mass density in series [5] (293.15 K) was determined as 791.63 ± 1.9 kg/m3; in series [5] (298.15 K) it was 786.95 ± 1.9 kg/m3; in series [5] (303.15 K) it was 782.22 ± 1.9 kg/m3.

Turning to `CCCCO` [butan-1-ol] + CCCCCCN, the relative permittivity in series [1] (293.15 K) worked out at 18.192 ± 0.73; in series [1] (298.15 K) it was 17.545 ± 0.71; in series [1] (303.15 K) it was 16.933 ± 0.7. For the same compound, the refractive index in series [2] (293.15 K) came to 1.39931 ± 0.00033; in series [2] (298.15 K) it was 1.39733 ± 0.00033; in series [2] (303.15 K), 1.39529 ± 0.00033.

With `CCCO` [propan-1-ol] + CCCCCCN, the relative permittivity in series [1] (293.15 K) turned out to be 21.15 ± 0.78; in series [1] (298.15 K) it was 20.449 ± 0.77; in series [1] (303.15 K) it was 19.784 ± 0.76. Further, the refractive index worked out at 1.38514 ± 0.00033 in series [2] (293.15 K), 1.38306 ± 0.00033 in series [2] (298.15 K) and 1.38102 ± 0.00033 in series [2] (303.15 K).

Consider `CCCCO` [butan-1-ol], for which the relative permittivity is recorded as 18.192 ± 0.73 in series [3] (293.15 K), 17.545 ± 0.71 in series [3] (298.15 K) and 16.933 ± 0.7 in series [3] (303.15 K). Further, the refractive index in series [4] (293.15 K) is given as 1.39931 ± 0.00033; in series [4] (298.15 K) it was 1.39733 ± 0.00033; in series [4] (303.15 K) it was 1.39529 ± 0.00033. The mass density in series [5] (293.15 K) turned out to be 809.85 ± 1.9 kg/m3; in series [5] (298.15 K), 806.06 ± 1.9 kg/m3; in series [5] (303.15 K), 802.22 ± 1.9 kg/m3.

With `CCCCCCCO` [heptan-1-ol] + CCCCCCN, the relative permittivity is on record as 12.019 ± 0.6 in series [1] (293.15 K), 11.504 ± 0.59 in series [1] (298.15 K) and 11.014 ± 0.57 in series [1] (303.15 K). The figures for the refractive index in series [2] (293.15 K), in series [2] (298.15 K) and in series [2] (303.15 K) were 1.42425 ± 0.00033, 1.42235 ± 0.00033 and 1.42047 ± 0.00033, respectively.

As to `CCCCCCCO` [heptan-1-ol], the relative permittivity in series [3] (293.15 K) is on record as 12.019 ± 0.6; in series [3] (298.15 K) it was 11.504 ± 0.59; in series [3] (303.15 K), 11.014 ± 0.57. The refractive index worked out at 1.42425 ± 0.00033 in series [4] (293.15 K), 1.42235 ± 0.00033 in series [4] (298.15 K) and 1.42047 ± 0.00033 in series [4] (303.15 K). In addition, the mass density in series [5] (293.15 K) is listed as 822.37 ± 2 kg/m3; in series [5] (298.15 K), 818.9 ± 2 kg/m3; in series [5] (303.15 K), 815.37 ± 2 kg/m3.
